Assay results reported in patent US10836795B2, “Dual functional novel peptide having cell permeability and bone tissue regeneration ability, and use thereof” (SEOUL NATIONAL UNIVERSITY R&DB FOUNDATION, priority 2016, dated 2020).
Where a SMILES comes first, the peptide text is derived from it.

Tests used:
[1] = system: dental pulp stem cells; test: MTT assay, in-vitro cytotoxicity of synthetic peptides; format: cell-based; settings: 50-2000 μM, 24, 48 and 72 hours
Experimental: A cell viability test was performed to evaluate the cytotoxicity of the peptides set forth in SEQ ID NOS: 1 to 6 synthesized in Example 2 above. For this purpose, dental pulp stem cells were seeded at a density of 9×10^3 cells per well into each well of a 96-well polystyrene plate in a Dulbecco's Modified Eagle's Medium (Gibco, USA) supplemented with 10% FBS (fetal bovine serum) and a 1% antibiotic-antimycotic solution (Thermo Fisher Scientific, USA), and then cultured for 24 hours. Each well was treated with various concentrations (50 μM, 100 μM, 200 μM, 400 μM, 500 μM, 800 μM, 1000 μM and 2000 μM) of the peptides set forth in SEQ ID NOS: 1 to 6. After 24 hours (1 day), 48 hours (2 days) and 72 hours (3 days), an MTT assay was performed to identify the cytotoxicity of the peptides. For the MTT assay, the medium was removed 24 hours, 48 hours, and 72 hours after treatment with peptide and each well was then treated with a mixture of 180 μl of a DMEM medium and 20 μl of a MTT solution, followed by further culturing for 1 hour. One hour later, the mixed solution was removed, each well was treated with 200 μl of dimethyl sulfoxide (DMSO) and the mixed solution was then transferred into a new 96-well plate and the cytotoxicity thereof was measured. All values were expressed as mean±standard deviation (SD) for triplicate experiments and the measured values are shown in FIG. 3.

[2] = system: dental pulp stem cells; test: Cell permeability of FITC-labeled peptides by confocal microscopy; format: cell-based; settings: for fluorescence expression at highest concentration: 1000 uM; for cell permeation ability / efficiency: 50-1000 μM
Experimental: In order to identify the cell permeability of the peptides set forth in SEQ ID NOS: 1 to 6 synthesized in Example 2, fluorescein isothiocyanate (FITC) was attached to the N-terminus of each peptide. Dental pulp stem cells were seeded at a density of 3×10^4 cells into a 4-well chamber and cultured in DMEM medium for 24 hours for cell stabilization. 24 hours later, the cells were treated with the FITC-labeled peptide at various concentrations (50 μM, 100 μM, 200 μM, 500 μM, 1000 μM) for 30 minutes. The cells were treated with 100 ng/ml of copine 7 protein for 30 minutes in order to compare the cell permeability thereof with the peptide. Then, in order to compare the intracellular permeation behaviors of these peptides or the protein, each well was treated with 4% paraformaldehyde, fixed at room temperature for 10 minutes, treated with 0.5% Triton-X 100, and cultured at room temperature for 15 minutes. Then, the cells were blocked with a buffer solution (PBS) containing 3% bovine serum albumin (BSA) for 30 minutes. In the case of copine 7 protein, a CPNE7 primary antibody was diluted at a ratio of 1:100 in a buffer solution (PBS) containing 1% bovine serum albumin and reacted at 4° C. for 16 hours. A fluorescein isothiocyanate (FITC)-conjugated secondary antibody was diluted at a ratio of 1:200 and reacted at room temperature for 1 hour. Finally, the nuclei-staining dye (Hoechst 33342, blue) was treated at room temperature for 10 minutes and washed with a buffer solution (PBS), and the fluorescence intensity thereof was measured using a confocal scanning microscope (IX 70, Olympus Co, Tokyo, Japan) to determine the degree of expression. All values were expressed as mean±SD of the fluorescence intensities measured in three different areas, and were compared with the control group (no treatment, NT) (*P<0.05).

[3] = system: osteocalcin in dental pulp stem cells (DPSCs); test: Bone differentiation ability: osteocalcin expression by immunofluorescence; format: cell-based
Experimental: In order to identify the bone differentiation ability of the peptide set forth in SEQ ID NO: 4, which was determined to have the best cell penetration function in Example 4, and the copine 7 protein, expression difference of osteocalcin in dental pulp stem cells (DPSCs) was evaluated.
For this purpose, 1×10^5 DPSCs were suspended in 50 μl of a medium (Dulbecco's Modified Eagle's Medium, Gibco, USA) supplemented with 10% FBS (fetal bovine serum) and a 1% antibiotic-antimycotic solution (Thermo Fisher Scientific, USA) in a 24-well plate. The cells were cultured for 24 hours and then treated with the peptide set forth in SEQ ID NO: 4 at concentrations of 200 μM and 500 μM and the copine 7 protein at a concentration of 100 ng/ml, respectively, while replacing the medium with Differentiation basal medium-Osteogenic (Lonza, USA) supplemented with a supplement (hMSC Osteogenic SingleQuots, Lonza, USA) for 18 days. […] Finally, the cells were treated with the nuclei-staining dye (Hoechst 33342, blue) at room temperature for 10 minutes and washed with buffer (PBS), and the expression level of osteocalcin was determined with a confocal scanning microscope (IX 70, Olympus Co, Tokyo, Japan). All values were expressed as mean±SD of fluorescence intensity measured in three different areas and were compared with the control group (no treatment, NT) (*P<0.05).

[4] = system: skull of a New Zealand white rabbit; test: Bone regeneration ability of a peptide-containing bone graft material in a rabbit skull defect; format: in vivo; settings: 3 weeks after graft
Experimental: 20 mg and 40 mg of the peptide shown in SEQ ID NO: 4 were dissolved in 100 μL of purified water, and the solution was added to 0.1 g of a bone graft material, allowed to stand at 4° C. for 24 hours and lyophilized. The copine 7 protein was used as a control group in the same manner as above and was incorporated in amounts of 100 μg and 200 μg in 0.1 g of a bone graft material. A defect part with a diameter of 8 mm was formed in the skull of a New Zealand white rabbit (cuniculus) and implanted with 0.1 g of a bone graft material in each defect part. The periosteum and skin were double-sutured. The animal was sacrificed 3 weeks after graft, and the specimen was fixed in a formalin solution and embedded in tissues to obtain a specimen with a thickness of 20 um. The prepared specimen was stained with basic fuchsin and toluidine blue to prepare a non-decalcified sample. The sample was imaged with an optical microscope and analyzed histologically. All values were expressed as mean±SD (SD) of areas measured in three different samples and compared with copine 7 protein (*P<0.05).

[5] = FITC-labeled peptide, 30 minutes, FIG. 4

Molecule | cytotoxicity (MTT assay) [1] | fluorescence expression at highest concentration [2, 5] | cell permeation ability / efficiency [2, 5] | further results
CC(C)C[C@H](NC(=O)[C@@H](NC(=O)[C@@H](NC(=O)[C@@H](NC(=O)CNC(=O)[C@H](CO)NC(=O)[C@H](CC(N)=O)NC(=O)[C@H](CCCCN)NC(=O)[C@H](Cc1ccc(O)cc1)NC(=O)[C@@H](N)CO)C(C)C)C(C)C)C(C)C)C(N)=O [SEQ ID NO: 5, SYKNSGVVVL] (H-SYKNSGVVVL-NH2) | intracellularly toxic |  |  | 
CC(C)C[C@H](NC(=O)[C@@H](NC(=O)[C@@H](NC(=O)[C@@H](NC(=O)CNC(=O)[C@H](CO)NC(=O)[C@H](CC(N)=O)NC(=O)[C@H](CCCCN)NC(=O)[C@H](Cc1ccc(O)cc1)NC(=O)[C@H](CO)NC(=O)[C@H](CCCNC(=N)N)NC(=O)[C@H](CCCNC(=N)N)NC(=O)[C@H](CCCCN)NC(=O)[C@H](CCC(N)=O)NC(=O)[C@H](CCCCN)NC(=O)[C@H](Cc1ccc(O)cc1)NC(=O)[C@H](CCCCN)NC(=O)[C@@H]1CCCN1C(=O)[C@H](CC(N)=O)NC(=O)[C@@H](N)C(C)C)C(C)C)C(C)C)C(C)C)C(N)=O [SEQ ID NO: 6] (H-VNPKYKQKRRSYKNSGVVVL-NH2) | intracellularly toxic |  |  | 
FEEGQAQWDC (Dual functional candidate peptide for cell penetration and bone tissue regeneration) [SEQ ID NO: 2, peptide from copine 7 protein, position 331-340] |  | weak fluorescence |  | 
FEEGQAQWDCVNPKYKQKRR (Dual functional candidate peptide for cell penetration and bone tissue regeneration) [SEQ ID NO: 3, peptide from copine 7 protein, position 331-350] |  |  | relatively excellent cell permeation efficiency | 
STTFEEMQKA (Dual functional candidate peptide for cell penetration and bone tissue regeneration) [SEQ ID NO: 1, peptide from copine 7 protein, position 321-330] |  | no fluorescence expression | no cell permeation ability | 
VNPKYKQKRR (Dual functional peptide for cell penetration and bone tissue regeneration) [SEQ ID NO: 4, peptide from copine 7 protein, position 341-350] |  |  | best cell permeation efficiency | fluorescence at 100 μM ([2]; FITC-labeled peptide, 100 μM, 30 minutes, FIG. 4): had fluorescence; cell permeability compared with copine 7 protein (confocal microscope) ([2]; versus 100 ng/ml copine 7 protein, 30 minutes, FIG. 5A): better cell permeability than the copine 7 protein; quantified fluorescence intensity compared with copine 7 protein ([2]; versus 100 ng/ml copine 7 protein, FIG. 5B): strong fluorescence intensity compared to the copine 7 protein; expression degree of osteocalcin as fluorescence intensity ([3]; 200 μM and 500 μM peptide versus 100 ng/ml group, 18 days, FIG. 6): relatively stronger fluorescence intensity; bone differentiation ability compared with copine 7 protein ([3]; DPSCs, 18 days in osteogenic medium): superior to the copine 7 protein; effect of regenerating new bone at the skull defect part ([4]; bone graft material with 20 mg or 40 mg peptide versus 100 μg or 200 μg copine 7 protein, FIG. 7A): excellent effect of regenerating new bone; bone regeneration area (histomorphometric analysis) ([4]; versus copine 7 protein, FIG. 7B): significantly wider bone regeneration area than the copine 7 protein
